# Legend:
# [1] = biological target: D(2) dopamine receptor (Homo sapiens, UniProt P14416); experiment: Binding affinity to D2 dopamine receptor by radioligand binding assay
# [2] = biological target: D(1B) dopamine receptor (Homo sapiens, UniProt P21918); experiment: Binding affinity to D5 dopamine receptor by radioligand binding assay
# [3] = biological target: Adenosine receptor A1 (Homo sapiens, UniProt P30542); experiment: Binding affinity to adenosine A1 receptor by radioligand binding assay
# [4] = biological target: Adenosine A2 receptor (Homo sapiens, UniProt P29275+P29274); experiment: Binding affinity to adenosine A2 receptor by radioligand binding assay; type: protein assay
# [5] = biological target: Adenosine receptor A3 (Homo sapiens, UniProt P0DMS8); experiment: Binding affinity to adenosine A3 receptor by radioligand binding assay
# Adenosine receptor A3, sequence (P0DMS8 whole entry): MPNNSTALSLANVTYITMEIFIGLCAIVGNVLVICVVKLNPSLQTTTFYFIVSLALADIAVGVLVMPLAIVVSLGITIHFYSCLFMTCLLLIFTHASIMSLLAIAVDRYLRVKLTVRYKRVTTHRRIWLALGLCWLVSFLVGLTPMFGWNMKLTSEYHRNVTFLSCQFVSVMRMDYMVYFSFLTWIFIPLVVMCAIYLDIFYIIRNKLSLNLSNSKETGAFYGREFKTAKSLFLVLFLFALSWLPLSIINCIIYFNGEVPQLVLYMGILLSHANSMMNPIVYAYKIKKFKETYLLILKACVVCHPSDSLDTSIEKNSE
# [6] = biological target: Adenosine receptor A2a (Homo sapiens, UniProt P29274); experiment: Binding affinity to adenosine […] receptor by radioligand binding assay
# [7] = biological target: Voltage-gated inwardly rectifying potassium channel KCNH2 (Homo sapiens, UniProt Q12809); experiment: Binding affinity to hERG by radioligand binding assay
# [8] = biological target: Serotonin 3 (5-HT3) receptor; experiment: Binding affinity to 5HT3 receptor by radioligand binding assay; type: protein-complex assay, Homo sapiens
# [9] = Binding affinity to mGluR by radioligand binding assay; parameters: species or system Homo sapiens
# [10] = Binding affinity to NK receptor by radioligand binding assay
# [11] = Binding affinity to calcium channel by radioligand binding assay
# [12] = system: Baboon; experiment: Penetration through blood-brain barrier in baboon; type: ADME, organism-based, Papio; conditions: in vivo
# [13] = Binding affinity to sodium channel by radioligand binding assay
# [14] = biological target: Sodium-dependent dopamine transporter (Homo sapiens, UniProt Q01959); experiment: Binding affinity to DAT by radioligand binding assay
# [15] = biological target: 5-hydroxytryptamine receptor 6 (Homo sapiens, UniProt P50406); experiment: Binding affinity to 5HT6 receptor by radioligand binding assay
# [16] = biological target: 5-hydroxytryptamine receptor 5A (Homo sapiens, UniProt P47898); experiment: Binding affinity to 5HT5A receptor by radioligand binding assay
# [17] = biological target: Delta-type opioid receptor (Homo sapiens, UniProt P41143); experiment: Binding affinity to DOR by radioligand binding assay
# Delta-type opioid receptor, sequence (P41143 whole entry): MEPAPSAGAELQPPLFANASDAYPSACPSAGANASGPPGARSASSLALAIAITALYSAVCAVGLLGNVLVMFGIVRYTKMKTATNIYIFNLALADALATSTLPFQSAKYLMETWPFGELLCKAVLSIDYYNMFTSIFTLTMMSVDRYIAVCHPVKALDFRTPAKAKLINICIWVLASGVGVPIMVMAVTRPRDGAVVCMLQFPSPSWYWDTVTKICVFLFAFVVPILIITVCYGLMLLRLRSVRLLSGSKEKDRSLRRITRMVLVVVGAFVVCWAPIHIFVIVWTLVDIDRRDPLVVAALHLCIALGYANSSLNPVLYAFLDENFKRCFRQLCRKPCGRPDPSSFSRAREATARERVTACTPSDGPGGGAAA
# [18] = biological target: Sodium-dependent noradrenaline transporter (Homo sapiens, UniProt P23975); experiment: Binding affinity to NET by radioligand binding assay
# Sodium-dependent noradrenaline transporter, sequence (P23975 whole entry): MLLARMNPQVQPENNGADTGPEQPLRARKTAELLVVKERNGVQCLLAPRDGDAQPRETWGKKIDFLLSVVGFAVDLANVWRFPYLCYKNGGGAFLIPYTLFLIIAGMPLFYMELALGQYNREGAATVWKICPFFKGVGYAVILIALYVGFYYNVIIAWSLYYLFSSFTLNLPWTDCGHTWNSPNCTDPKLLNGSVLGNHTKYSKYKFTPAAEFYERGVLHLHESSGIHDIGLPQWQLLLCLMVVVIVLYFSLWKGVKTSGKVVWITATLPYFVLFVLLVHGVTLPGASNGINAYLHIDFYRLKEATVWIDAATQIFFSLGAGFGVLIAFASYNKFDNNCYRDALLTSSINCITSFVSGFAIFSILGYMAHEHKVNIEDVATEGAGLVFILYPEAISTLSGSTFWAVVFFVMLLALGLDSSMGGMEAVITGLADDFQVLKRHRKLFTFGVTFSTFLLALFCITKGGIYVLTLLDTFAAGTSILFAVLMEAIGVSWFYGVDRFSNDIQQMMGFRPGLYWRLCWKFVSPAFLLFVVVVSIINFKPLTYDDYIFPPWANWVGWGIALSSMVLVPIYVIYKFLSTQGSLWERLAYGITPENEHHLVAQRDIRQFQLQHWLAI
# [19] = biological target: Glutamate receptor ionotropic AMPA (Homo sapiens, UniProt P42261+P42262+P42263+P48058); experiment: Binding affinity to AMPA receptor by radioligand binding assay; type: protein-complex assay
# [20] = Binding affinity to VMAT by radioligand binding assay
# [21] = biological target: GABA-A receptor; anion channel; experiment: Binding affinity to GABA receptor by radioligand binding assay; type: protein-complex assay
# [22] = biological target: Translocator protein (Homo sapiens, UniProt P30536); experiment: Binding affinity to BZP receptor by radioligand binding assay
# Translocator protein, sequence (P30536 whole entry): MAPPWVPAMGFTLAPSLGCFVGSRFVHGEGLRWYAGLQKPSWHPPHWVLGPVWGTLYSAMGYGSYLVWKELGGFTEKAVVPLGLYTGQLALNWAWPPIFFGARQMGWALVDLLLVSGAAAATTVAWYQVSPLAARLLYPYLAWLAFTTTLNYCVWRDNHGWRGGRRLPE
# [23] = biological target: Kappa-type opioid receptor (Homo sapiens, UniProt P41145); experiment: Binding affinity to KOR by radioligand binding assay
# Kappa-type opioid receptor, sequence (P41145 whole entry): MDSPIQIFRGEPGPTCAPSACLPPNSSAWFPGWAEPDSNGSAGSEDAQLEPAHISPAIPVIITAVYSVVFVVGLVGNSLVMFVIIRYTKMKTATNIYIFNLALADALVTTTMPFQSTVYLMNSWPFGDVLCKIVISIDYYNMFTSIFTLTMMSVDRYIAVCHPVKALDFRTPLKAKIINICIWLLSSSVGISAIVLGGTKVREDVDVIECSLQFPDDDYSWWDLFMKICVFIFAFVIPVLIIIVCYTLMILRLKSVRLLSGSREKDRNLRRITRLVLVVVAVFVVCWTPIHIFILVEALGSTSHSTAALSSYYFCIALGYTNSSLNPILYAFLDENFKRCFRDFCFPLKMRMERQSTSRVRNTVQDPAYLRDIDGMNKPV
# [24] = biological target: ATP-dependent translocase ABCB1 (Homo sapiens, UniProt P08183); experiment: Binding affinity to MDR1 by radioligand binding assay
# [25] = biological target: Histamine H2 receptor (Homo sapiens, UniProt P25021); experiment: Binding affinity to histamine H2 receptor by radioligand binding assay
# [26] = Binding affinity to EP receptor by radioligand binding assay
# [27] = biological target: 5-hydroxytryptamine receptor 1E (Homo sapiens, UniProt P28566); experiment: Binding affinity to 5HT1E receptor by radioligand binding assay
# 5-hydroxytryptamine receptor 1E, sequence (P28566 whole entry): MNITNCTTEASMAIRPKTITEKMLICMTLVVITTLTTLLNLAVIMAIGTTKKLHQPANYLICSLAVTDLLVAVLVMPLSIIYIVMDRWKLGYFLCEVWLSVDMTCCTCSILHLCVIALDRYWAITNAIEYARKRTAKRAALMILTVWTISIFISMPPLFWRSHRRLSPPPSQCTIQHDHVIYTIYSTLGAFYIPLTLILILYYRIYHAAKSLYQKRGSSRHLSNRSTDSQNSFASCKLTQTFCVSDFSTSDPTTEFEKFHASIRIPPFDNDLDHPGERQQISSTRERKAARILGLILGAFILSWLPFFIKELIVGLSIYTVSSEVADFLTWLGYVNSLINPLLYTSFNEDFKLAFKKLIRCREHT
# [28] = biological target: D(3) dopamine receptor (Homo sapiens, UniProt P35462); experiment: Binding affinity to D3 receptor by radioligand binding assay
# [29] = biological target: D(4) dopamine receptor (Homo sapiens, UniProt P21917); experiment: Binding affinity to D4 receptor by radioligand binding assay
# [30] = biological target: Histamine H3 receptor (Homo sapiens, UniProt Q9Y5N1); experiment: Binding affinity to histamine H3 receptor by radioligand binding assay
# Histamine H3 receptor, sequence (Q9Y5N1 whole entry): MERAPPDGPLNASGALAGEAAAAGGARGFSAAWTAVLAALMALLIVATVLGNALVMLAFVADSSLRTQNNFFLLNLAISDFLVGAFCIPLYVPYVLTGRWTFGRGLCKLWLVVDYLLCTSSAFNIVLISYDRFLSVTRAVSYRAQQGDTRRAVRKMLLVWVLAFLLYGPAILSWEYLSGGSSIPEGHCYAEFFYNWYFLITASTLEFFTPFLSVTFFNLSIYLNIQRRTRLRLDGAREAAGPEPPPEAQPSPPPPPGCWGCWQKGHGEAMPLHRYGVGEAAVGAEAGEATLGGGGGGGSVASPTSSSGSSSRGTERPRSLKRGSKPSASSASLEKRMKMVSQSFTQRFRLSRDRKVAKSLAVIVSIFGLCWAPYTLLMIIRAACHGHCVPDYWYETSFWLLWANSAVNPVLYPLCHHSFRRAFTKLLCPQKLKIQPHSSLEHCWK
# [31] = biological target: Histamine H4 receptor (Homo sapiens, UniProt Q9H3N8); experiment: Binding affinity to histamine H4 receptor by radioligand binding assay
# Histamine H4 receptor, sequence (Q9H3N8 whole entry): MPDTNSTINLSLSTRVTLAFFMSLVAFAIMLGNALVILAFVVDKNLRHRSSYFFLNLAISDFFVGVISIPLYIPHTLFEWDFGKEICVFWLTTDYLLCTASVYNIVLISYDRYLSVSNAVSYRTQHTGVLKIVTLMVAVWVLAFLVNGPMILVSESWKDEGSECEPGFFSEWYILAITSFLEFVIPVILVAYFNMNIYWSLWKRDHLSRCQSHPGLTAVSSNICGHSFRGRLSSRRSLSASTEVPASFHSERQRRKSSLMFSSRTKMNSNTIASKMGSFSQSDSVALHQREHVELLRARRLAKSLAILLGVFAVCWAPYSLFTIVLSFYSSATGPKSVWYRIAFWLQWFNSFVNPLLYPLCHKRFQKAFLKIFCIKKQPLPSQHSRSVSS
# [32] = biological target: Glutamate receptor ionotropic kainate; experiment: Binding affinity to KAR by radioligand binding assay; type: protein-complex assay
# [33] = biological target: Muscarinic acetylcholine receptor; experiment: Binding affinity to M receptor by radioligand binding assay; type: protein assay
# [34] = biological target: Glutamate [NMDA] receptor; experiment: Binding affinity to NMDA receptor by radioligand binding assay; type: protein-complex assay
# [35] = Binding affinity to V receptor by radioligand binding assay
# [36] = biological target: Sigma non-opioid intracellular receptor 1 (Homo sapiens, UniProt Q99720); experiment: Binding affinity to sigma1 opioid receptor by radioligand binding assay
# [37] = biological target: 5-hydroxytryptamine receptor 1B (Homo sapiens, UniProt P28222); experiment: Binding affinity to 5HT1B receptor by radioligand binding assay
# [38] = biological target: Alpha-2A adrenergic receptor (Homo sapiens, UniProt P08913); experiment: Binding affinity to alpha 2A adrenergic receptor by radioligand binding assay
# Alpha-2A adrenergic receptor, sequence (P08913 whole entry): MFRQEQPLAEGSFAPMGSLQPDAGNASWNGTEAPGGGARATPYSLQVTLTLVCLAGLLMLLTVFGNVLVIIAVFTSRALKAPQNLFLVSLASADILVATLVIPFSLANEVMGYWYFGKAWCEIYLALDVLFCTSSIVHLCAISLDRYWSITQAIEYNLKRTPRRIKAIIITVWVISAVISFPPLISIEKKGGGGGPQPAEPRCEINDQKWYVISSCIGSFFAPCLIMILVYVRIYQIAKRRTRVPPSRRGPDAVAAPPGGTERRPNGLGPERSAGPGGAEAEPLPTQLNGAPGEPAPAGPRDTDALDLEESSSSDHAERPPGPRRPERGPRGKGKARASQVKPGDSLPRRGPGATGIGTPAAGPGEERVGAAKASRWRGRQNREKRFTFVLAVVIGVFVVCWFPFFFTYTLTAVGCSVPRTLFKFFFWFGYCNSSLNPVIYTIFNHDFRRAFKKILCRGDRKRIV
# [39] = biological target: 5-hydroxytryptamine receptor 7 (Homo sapiens, UniProt P34969); experiment: Binding affinity to 5HT7 receptor by radioligand binding assay
# [40] = biological target: Alpha-1B adrenergic receptor (Homo sapiens, UniProt P35368); experiment: Binding affinity to alpha 1B adrenergic receptor by radioligand binding assay
# [41] = biological target: Alpha-1A adrenergic receptor (Homo sapiens, UniProt P35348); experiment: Binding affinity to alpha 1A adrenergic receptor by radioligand binding assay
# [42] = biological target: Histamine H1 receptor (Homo sapiens, UniProt P35367); experiment: Binding affinity to histamine H1 receptor by radioligand binding assay
# [43] = biological target: 5-hydroxytryptamine receptor 2A (Homo sapiens, UniProt P28223); experiment: Binding affinity to 5HT2A receptor by radioligand binding assay
# 5-hydroxytryptamine receptor 2A, sequence (P28223 whole entry): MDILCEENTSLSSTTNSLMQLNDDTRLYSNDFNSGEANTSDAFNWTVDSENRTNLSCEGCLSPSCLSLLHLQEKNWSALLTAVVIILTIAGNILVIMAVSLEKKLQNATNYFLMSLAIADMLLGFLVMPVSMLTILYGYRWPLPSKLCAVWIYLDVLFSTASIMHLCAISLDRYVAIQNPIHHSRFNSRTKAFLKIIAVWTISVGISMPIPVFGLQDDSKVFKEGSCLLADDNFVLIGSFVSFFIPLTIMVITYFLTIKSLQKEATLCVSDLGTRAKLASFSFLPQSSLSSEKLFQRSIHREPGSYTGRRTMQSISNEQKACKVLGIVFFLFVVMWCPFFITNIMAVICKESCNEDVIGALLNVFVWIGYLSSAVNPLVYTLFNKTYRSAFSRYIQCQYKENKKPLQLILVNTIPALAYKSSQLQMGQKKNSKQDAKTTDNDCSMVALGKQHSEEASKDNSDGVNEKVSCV
# [44] = biological target: Sodium-dependent serotonin transporter (Homo sapiens, UniProt P31645); experiment: Binding affinity to SERT by radioligand binding assay
# [45] = biological target: T1, 5-hydroxytryptamine receptor 1A (Homo sapiens, UniProt P08908); experiment: Agonist activity assessed by stimulation of [35S]GTP-gamma-S binding to human 5HT1A receptor expressed in CHO cells; type: functional, cell-based
# T1 sequence (P08908 whole entry): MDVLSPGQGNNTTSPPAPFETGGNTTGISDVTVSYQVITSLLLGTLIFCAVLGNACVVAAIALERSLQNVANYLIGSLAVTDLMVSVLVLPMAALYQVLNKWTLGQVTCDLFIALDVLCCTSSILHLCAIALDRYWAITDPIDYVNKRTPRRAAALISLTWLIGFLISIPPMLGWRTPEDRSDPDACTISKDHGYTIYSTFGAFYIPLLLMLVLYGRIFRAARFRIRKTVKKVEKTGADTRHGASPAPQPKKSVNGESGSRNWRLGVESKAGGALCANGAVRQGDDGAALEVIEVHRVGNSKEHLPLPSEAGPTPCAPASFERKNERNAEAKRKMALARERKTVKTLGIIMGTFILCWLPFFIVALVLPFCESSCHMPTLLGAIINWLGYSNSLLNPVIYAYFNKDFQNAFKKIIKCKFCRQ
# [46] = biological target: T1, 5-hydroxytryptamine receptor 1A; experiment: Binding affinity to 5HT1A receptor by radioligand binding assay
# [47] = biological target: 5-hydroxytryptamine receptor 2B (Homo sapiens, UniProt P41595); experiment: Binding affinity to 5HT2B receptor by radioligand binding assay
# 5-hydroxytryptamine receptor 2B, sequence (P41595 whole entry): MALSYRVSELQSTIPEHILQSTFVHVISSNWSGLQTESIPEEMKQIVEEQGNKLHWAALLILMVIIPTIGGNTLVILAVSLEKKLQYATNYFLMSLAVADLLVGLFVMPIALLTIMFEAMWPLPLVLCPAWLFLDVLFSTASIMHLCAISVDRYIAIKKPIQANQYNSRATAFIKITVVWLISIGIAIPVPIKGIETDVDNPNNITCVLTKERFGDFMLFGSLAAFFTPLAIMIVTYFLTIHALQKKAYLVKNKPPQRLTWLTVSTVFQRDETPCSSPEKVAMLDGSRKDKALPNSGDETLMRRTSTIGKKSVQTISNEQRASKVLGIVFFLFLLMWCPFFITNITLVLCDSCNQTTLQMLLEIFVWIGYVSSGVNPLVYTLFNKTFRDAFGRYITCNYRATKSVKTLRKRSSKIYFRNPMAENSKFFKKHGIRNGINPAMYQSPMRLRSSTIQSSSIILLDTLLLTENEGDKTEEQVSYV
# [48] = biological target: Alpha-2C adrenergic receptor (Homo sapiens, UniProt P18825); experiment: Binding affinity to alpha 2C adrenergic receptor by radioligand binding assay
# [49] = biological target: 5-hydroxytryptamine receptor 1A (Homo sapiens) (UniProt P08908); experiment: Agonist activity assessed by stimulation of [35S]GTP-gamma-S binding to human 5HT1A receptor expressed in CHO cells relative to 5-HT; type: functional, cell-based
# 5-hydroxytryptamine receptor 1A (Homo sapiens), sequence (P08908 whole entry): as the sequence (P08908 whole entry) above
compound,measurement,setting,value
COc1cccc(N2CCN(CCCCn3ncc(=O)n(C)c3=O)CC2)c1,Ki,[1],2.58 µM
same,Ki,[2],> 10 µM
same,Ki,[3],> 10 µM
same,Ki,[4],> 10 µM
same,Ki,[5],> 10 µM
same,Ki,[6],> 10 µM
same,Ki,[7],> 10 µM
same,Ki,[8],> 10 µM
same,Ki,[9],> 10 µM
same,Ki,[10],> 10 µM
same,Ki,[11],> 10 µM
same,Activity,[12],Active
same,Ki,[13],> 10 µM
same,Ki,[14],> 10 µM
same,Ki,[15],> 10 µM
same,Ki,[16],> 10 µM
same,Ki,[17],> 10 µM
same,Ki,[18],> 10 µM
same,Ki,[19],> 10 µM
same,Ki,[20],> 10 µM
same,Ki,[21],> 10 µM
same,Ki,[22],> 10 µM
same,Ki,[23],> 10 µM
same,Ki,[24],> 10 µM
same,Ki,[25],2.13 µM
same,Ki,[26],> 10 µM
same,Ki,[27],> 10 µM
same,Ki,[28],> 10 µM
same,Ki,[29],> 10 µM
same,Ki,[30],> 10 µM
same,Ki,[31],> 10 µM
same,Ki,[32],> 10 µM
same,Ki,[33],> 10 µM
same,Ki,[34],> 10 µM
same,Ki,[35],> 10 µM
same,Ki,[36],0.18 µM
same,Ki,[37],0.228 µM
same,Ki,[38],0.25 µM
same,Ki,[39],0.328 µM
same,Ki,[40],0.378 µM
same,Ki,[41],0.413 µM
same,Ki,[42],0.839 µM
same,Ki,[43],2.1 µM
same,Ki,[44],> 10 µM
same,EC50,[45],0.0003 µM
same,Ki,[46],0.0011 µM
same,Ki,[47],0.0337 µM
same,Ki,[48],0.109 µM
same,Emax,[49],95%

# — ChEMBL document CHEMBL1146943, “Synthesis, in vitro and in vivo evaluation of [O-methyl-11C] 2-{4-[4-(3-methoxyphenyl)piperazin-1-yl]-butyl}-4-methyl-2H-[1,2,4]-triazine-3,5-dione: a novel agonist 5-HT1A receptor PET ligand” (Bioorg Med Chem Lett, 2006)
